Several values for one entry are separate records, joined by “and”; a condition that tells them apart may be missing. Equal entries are not always repeated. Where two headings read alike, the source gives them in different places.
Tests used:
[1] = tested on: human LDL receptor promoter; experiment: in vitro Luciferase Activity Test (LDL receptor promoter-luciferase reporter in recombinant CHO cells); format: cell-based; parameters: MED: unit not given here; conditions: for Emax: Homo sapiens, CHO, read-out: MA%; for Emax / MA%: maximum activity (%) over control; for MED: minimum effective dose (molar concentration, unit not given), 24 hr, assay medium with 0.5 µg/ml 25-hydroxycholesterol; for RED: relative effective dose compared to compound of Example 4, below one = more active
Protocol: A 1546 base pair sequence of the human LDL receptor promoter was amplified using the polymerase chain reaction. A reaction mixture containing 20 pMoles each of the synthetic oligonucleotides 5'-[…]-3' (Seq. I.D. No: 1) and 5'-AAG-[…]-3', (Seq. I.D. No:2) 1 µg human genomic DNA purified from the adenocarcinoma cell line P3UCLA, 200 µM each of dATP, dGTP, dCTP, and TTP, 2.5 units of Taq DNA polymerase, 10mM Tris-HCI pH 8.3, 50 mM KCI, […], 0.1% gelatin in a final volume of 100 µl was subjected to 30 cycles of 15 sec at 96°C, 30 sec at 55°C, and 1 min at 72°C. The material was subject to gel electrophoresis on a 1% agarose gel and the 1546 base pair band was isolated and restriction enzyme digested with Hind III and Nde I. This fragment was ligated into the plasmid pSP72 (ProMega Biotech), which had previously been restriction enzyme nuclease digested with Hind III and Nde I. The resulting vector, pNLDLRP, was restriction endonulease digested with Ndel and Hind III and the material was again run on a 1% agarose gel to reisolate the 1546 bp LDL receptor sequence.
Plasmid vector PSv2 was constructed by digesting plasmid pSv2-globin with Hind III and Bgl II then ligating an Nrul-Xhol linker into the vector. Plasmid pSv2 globin is disclosed in U.S. Patent No. 4,775,624, the entire teaching of which is herein incorporated by reference. The linker contained the following sequences: [formula] (Seq. I.D. No: 3), and [formula] ' (Seq. I.D. No:4).
The resulting vector was designated pSv2-H NXB because it contained a […], an Nrul site, an Xhol site and a Bgl site. The Hind III-Bgl II fragment of plasmid pAlc4(NRRL B-18783), which contains the firefly luciferase gene, was then ligated into the Hin III-Bgl site of plasmid pSv2-HNXB. A neomycin resistance-conforming gene was then ligated into the Bam HI site of the resultant plasmid to form plasmid pSv2.
A 1546 base pair fragment was isolated and cloned into a Ndel and Hind III (partial) restriction digested vector pSv2 containing the firefly luciferase reporter gene and a gene for neomycin resistance. The resulting vector, pLDL-Luc1 Neo-10, contains the human LDL receptor promoter driving expression of the firefly luciferase gene, a gene coding for neomycin resistance, ampicillin resistant marker and an origin of replication.
Plasmid pLDL-Luc 1 Neo-10 was used to stably transfect Chinese Hamster Ovary cells using a Lipofection Reagent kit and procedure from Gibco BRL Research Products Division Life Technologies Inc. Transformants were selected by picking individual colonies grown in Dulbecco's modified Eagle's medium supplimented with 10% fetal bovine serum and containing 500 µg per ml […]. […] Clone S27/B30 was used for subsequent screening.
In developing a cell based screen it is important to have a negative control. The viral SV40 promoter is ideal for this purpose in that it has a number of SP1 elements that enhance gene transcription. These elements are not under the control of end product repression; but they do have a high degree of sequence homology with the 16 base pair long sterol response element found in the LDL receptor promoter. The SV40 promoter should therefore be a sensitive mechanism to screen out agents that induce nonspecific transcription.
Chinese Hamster Ovary cells were stably cotransfected with a vector pSV2AL-A 5' containing the SV40 promoter driving expression of the firefly luciferase gene and a second vector pSV2 NeoBam containing a neomycin resistant marker. Transfections were carried out using the Lipofectin Reagent kit and procedure from Gibco BRL Research Products Division Life Technologies Inc. Transformants were selected by picking individual colonies grown in Dulbecco's modified Eagle's medium supplemented with 10% fetal bovine serum and containing 500 µg per ml of geneticin. Individual clones were selected, lysed and assayed for luciferase production. […]

Syrian Golden hamsters = experiment: In vivo serum cholesterol lowering in hamsters fed a cholesterol test diet; conditions: hamsters; for inhibition in vivo at 100 mg/kg/day: Mesocricetus auratus, feed or water, 168 h, read-out: Percent Lowering of Cholesterol from Control Value Mean; for inhibition in vivo at 100 mg/kg/day / Percent Lowering of Cholesterol from Control Value Mean: 0.2% (w/w) in diet for one week (100 mg/kg/day), negative values = serum cholesterol increased relative to control; for Serum Cholesterol Mean: 0.2% (w/w) in Cholesterol Test Diet for one week, equivalent to 100 mg/kg/day, groups of six, control mean 337
Protocol: Syrian Golden hamsters were fed a cholesterol test diet made of 10% coconut oil and 0.12% cholesterol (by weight) in Purina 5001 Rodent Chow to induce hypercholesteriolemia.
After two weeks on the cholesterol test diet the hamsters were bled from the orbital sinium under light CO2 anesthesia. Serum was prepared and analyzed for cholesterol using a commercial test kit (Cholesterol High Performance, Single Vial™, product of Boehringer Mannheim Corp., Indianapolis, IN, USA). The hamsters were separated into groups of six animals, such that each group had approximately the same mean serum cholesterol levels. Selected compounds of the invention were incorporated into the Cholesterol Test Diet at 0.2% (w/w) and fed to the hamsters for one week. A control group of hamsters continued on the Cholesterol Test Diet during the same one-week period. The dose of test compounds of the invention was equivalent to 100 mg/kg/day based on the weight of the hamsters and their diet consumption. Upon completion of the test period, the animals were bled and serum cholesterol determined as above.
Mean serum cholesterol values from the test hamsters were compared to values from the control group and tested for significance at the Z.05 level using Dunnett's test.

[2] = NA is not active, 30% luciferase activity cutoff point (footnote 1)
[3] = tests using 30% luciferase activity cutoff point (footnote 1)
[4] = 30% luciferase activity cutoff point (footnote 1)
[5] = 15% luciferase activity cutoff point (footnote 2)
[6] = tests using 15% luciferase activity cutoff point (footnote 2)

| SMILES | Emax [1, 2] | MED [1, 3] | RED [1, 4] | inhibition in vivo at 100 mg/kg/day (Syrian Golden hamsters) | Serum Cholesterol Mean (Syrian Golden hamsters) | MA% [1, 5] | MA% [1, 2] | Emax [1, 5] | MED [1, 6] | RED [1, 5] | Percent Lowering of Cholesterol from Control Value Mean (Syrian Golden hamsters) |
| --- | --- | --- | --- | --- | --- | --- | --- | --- | --- | --- | --- |
| C/C=C/C[C@@H]1[C@H](O)CC[C@@]2(C)[C@H]1CC[C@@H]1[C@@H]2CC[C@]2(C)[C@@H]([C@H](C)CCCC(C)C)CC[C@@H]12 [Example 4, [4a(E),5a]-4-(2-butenyl)cholestan-3a-ol] | 80% | 2.2 | 1.00 | 37.8% | 210 mg/dL |  |  |  |  |  |  |
| C=CC[C@@H]1[C@H](NC(C)=O)CC[C@@]2(C)[C@H]1CC[C@@H]1[C@@H]2CC[C@]2(C)[C@@H]([C@H](C)CCCC(C)C)CC[C@@H]12 [Example 81, N-[(3α,4α,5α,20β)-4-(2-propenyl)cholestan-3-61]acetamide] | 32% | 44.9 | 7.9 | -7.8% | 364 mg/dL |  |  |  |  |  |  |
| CC(C)CCC[C@@H](C)[C@H]1CC[C@H]2[C@@H]3CCC4[C@H](Cc5ccc(I)cc5)[C@H](O)CC[C@]4(C)[C@H]3CC[C@]12C (stereo partly shown) [Example 25, 4a-(4-iodobenzyl)cholestan-3a-ol] |  |  |  | 28.8% | 240 mg/dL | 89% and 64% and 79% |  |  |  |  |  |
| C=CC[C@H]1C2CC[C@@H]3[C@H](CC[C@]4(C)C(OCc5ccccc5)CC[C@@H]34)[C@@]2(C)CC[C@H]1O (stereo partly drawn) [Example 68, (3α,4α)-17-(phenylmethoxy)-4-(2-propenyl)androstan-3-ol] | 42% |  |  | 8.6% | 309 mg/dL |  | 33% and 39% |  |  |  |  |
| CC(C)CCC[C@@H](C)[C@H]1CC[C@H]2[C@@H]3CCC4[C@H](Cc5ccc(F)cc5)[C@H](O)CC[C@]4(C)[C@H]3CC[C@]12C (stereo partly shown) [Example 23, 4a-(4-fluorobenzyl)cholestan-3a-ol] |  |  |  | 46.3% | 181 mg/dL | 37% |  | 49% |  |  |  |
| CCC[C@@H]1[C@H](O)CC[C@@]2(C)[C@H]1CC[C@@H]1[C@@H]2CC[C@]2(C)[C@@H]([C@H](C)CCCC(C)C)CC[C@@H]12 [Example 87] | 14% | 23.2 | 8.3 | 31.2% | 222 mg/dL |  |  |  |  |  |  |
| C=CC[C@@H]1[C@H](N)CC[C@@]2(C)[C@H]1CC[C@@H]1[C@@H]2CC[C@]2(C)[C@@H]([C@H](C)CCCC(C)C)CC[C@@H]12 [Example 86] | 89% | 5.6 | 2.0 | -37.4% | 464 mg/dL |  |  |  |  |  |  |
| CC(C)CCC[C@@H](C)[C@H]1CC[C@H]2[C@@H]3CCC4[C@H](Cc5ccc(O)cc5)[C@H](O)CC[C@]4(C)[C@H]3CC[C@]12C (stereo partly shown) [Example 36, 4a-(4-hydroxybenzyl)cholestan-3a-ol] |  |  |  | 22.6% | 261 mg/dL |  |  | 20% | 40 | 17.6 |  |
| C=CC[C@H]1C2CC[C@@H]3[C@H](CC[C@]4(C)C(OCCCC(C)C)CC[C@@H]34)[C@@]2(C)CC[C@H]1O (stereo partly drawn) [Example 66, (3α,4α)-17-[(4-methylpentyl)oxy]-4-(2-propenyl)androstan-3-ol] |  |  |  | 30.7% | 234 mg/dL |  | 73% and 100% and 105% and 118% |  |  |  |  |
| CC(C)CCC[C@@H](C)[C@H]1CC[C@H]2[C@@H]3CCC4[C@H](Cc5ccc(OC(F)(F)F)cc5)[C@H](O)CC[C@]4(C)[C@H]3CC[C@]12C (stereo partly shown) [Example 30, 4a-(4-trifluoromethoxybenzyl)cholestan-3a-ol] |  | 17.3 and 8.9 |  | 38% | 209 mg/dL |  | 65% and 92% | 76% | 8.9 | 3.2 |  |
| CC(C)CCC[C@@H](C)[C@H]1CC[C@H]2[C@@H]3CCC4[C@H](Cc5ccccc5)C(=O)CC[C@]4(C)[C@H]3CC[C@]12C (stereo partly shown) [(19), 4a-benzylcholestan-3-one] |  |  |  |  | 312 mg/dL |  |  |  |  |  | 7.5% |
| C=CC[C@@H]1C[C@@]2(C)[C@@H](CC[C@@H]3[C@@H]2CC[C@]2(C)[C@@H]([C@H](C)CCCC(C)C)CC[C@@H]32)C[C@@H]1O [Example 77, (2a, 3a, 5a)-2-(2-propenyl)cholestan-3-ol] | 60% | 40.8 | 4.6 | 38% | 209 mg/dL |  |  |  |  |  |  |
| C=CC[C@@H]1[C@H](O)CC[C@@]2(C)[C@H]1CC[C@@H]1[C@@H]2CC[C@]2(C)[C@@H]([C@H](C)CCCC(C)C)CC[C@@H]12 [(4), (3α,4α,5α,20β)-4-(2-propenyl)cholestan-3-ol] |  |  |  |  | 198 mg/dL |  |  |  |  |  | 41.4% |

— EP0562849A2, “Steroid derivatives” (priority 1992, dated 1993)
